This note sets out measurements from US20260256716A1, “COMPOSITIONS AND METHODS OF USE THEREOF” (Board of Supervisors of Louisiana State University and …, priority 2023, published 2026).

The test system of assay [1] is ARPE cells. Description: Blue light induced mitochondrial oxidative stress in ARPE cells (Mitosox). It is filed as cell-based, human. The conditions noted are these: 0.001 nM; 24 hours; hyperglycemic conditions; blue light 400 nm 12 seconds. On the procedure:
Representative 5-HT2A Receptor Agonist, R-DOI Inhibits Blue Light Induced Mitochondrial-Mediated Oxidative Stress at low sub-nanomolar concentrations thereby reversing adverse processes that are associated with retinal exposure to blue light. ARPE cells grown under hyperglycemic conditions were plated and mock treated or treated with R-DOI at 0.001 nM. 24 hours post treatment, live ARPE cells were labeled with the mitochondrial oxidative stress indicator dye Mitosox that becomes fluorescent red under mitochondria-induced oxidative stress conditions. Once stained, live ARPE cells were exposed to focused blue light at 400 nm for 12 seconds and the ability of drugs to protect against blue light damage-induced mitochondrial oxidative stress induction was assessed. In the absence of 5HT2A agonists, there was a clear increase in red fluorescence upon blue light exposure.

In assay [2] the test system is ARPE cells. Description: Mitochondrial biomass and potential (MitoTracker staining / flow cytometry) in ARPE cells. In kind it is cell-based, human. The conditions noted are these: 10 fold dilutions 100 nM to 0.001 nM; 48 hours. The method, then:
Representative 5-HT2A Receptor Agonist, R-DOI, Increases Mitochondrial Biogenesis and Function at low nM to sub nanomolar concentrations thereby reversing adverse processes that underlie development and progression of the Pathophysiology of Age-Associated Ocular and Neurodegenerative Diseases. ARPE cells were plated and treated with 10 fold dilutions of R-DOI from 100 nM to 0.001 nM. 48 hours post treatment, mitochondrial biomass was assessed either by staining for mitochondria using mitotracker (green, left panel) or via flow cytometry using MitoTracker Red CMOXROS that assesses both mitochondrial biomass and mitochondrial potential.

For assay [3], the system named is ARPE cells. Description: Mitochondrial function and ATP production by Seahorse in ARPE cells. In kind it is cell-based, human. The conditions noted are these: 10 fold dilutions 100 nM to 0.001 nM; 48 hours. On the procedure: Representative 5-HT2A Receptor Agonist, R-DOI Increases Mitochondrial Function And ATP Production at low nM and sub nanomolar concentrations thereby reversing adverse processes that underlie development and progression of the Pathophysiology of Age-Associated Ocular and Neurodegenerative Diseases. ARPE cells were plated and treated with 10 fold dilutions of R-DOI from 100 nM to 0.001 nM. 48 hours post treatment, mitochondrial function and ATP production was assessed by Seashorse.

In the next assay the test system is mitofusin2 and TOMM20. In words: Western blot of mitofusin2 and TOMM20 in ARPE-19 cells. In kind it is cell-based, human. The conditions noted are these: all concentrations; 48 h post treatment; DMEM 7% FCS. An excerpt:
Representative 5-HT2A Receptor Agonist, R-DOI, Increases Mitochondrial Biogenesis and Quality by Inducing Mitochondrial Fusion at low nM concentrations thereby reversing adverse processes that underlie development and progression of the Pathophysiology of Age-Associated Ocular and Neurodegenerative Diseases. Consistent with the Maintenance of Functional Mitochondria and Mitochondrial Health, Serotonin 2A Receptor Agonism, Like with R-DOI, Increases Enzymatic BioMarkers of Mitochondrial Fusion (Mitofusin2) and Biogenesis (TOMM20). ARPE-19 cells were grown in DMEM 7% FCS containing the indicated concentrations of R-DOI. 48 h post treatment, cell samples were lysed and normalized prior to running western blots to evaluate mitofusin2 and TOMM20 protein expression. […] Mitofusion2 functions to regulate mitochondrial fusion. TOMM20 imports proteins through the outer membrane and is a marker of biogenesis and number.

Another assay has as its system SIRT1 and 3. Description: Western analysis of Sirtuin (SIRT) 1 and 3 expression. It is filed as cell-based. The conditions noted are these: varying concentrations, increased as concentrations decreased to nM. An excerpt: Sirtuins utilize NAD to suppress pathophysiological processes of aging, including diabetic retinopathies, AMD and Neurodegeneration. Representative western analysis of Sirtuin (SIRT) 1 and 3 expression following cellular treatment with the representative 5-HT2A Receptor agonist R-DOI at varying concentrations.

In the next assay the test system is AMP kinase. Description: AMP kinase activation in treated cells. It is filed as cell-based. The conditions noted are these: low nM concentrations.

As for `COc1cc(C[C@@H](C)N)c(OC)cc1I` (single isomer, unassigned) [R-DOI, R enantiomer 2,5-Dimethoxy-4-iodoamphetamine], in the assay with ARPE cells [1], the “blue light induced mitochondrial oxidative stress” value was “abrogated mitochondrial oxidative stress responses”. For the same compound, the “mitochondrial biomass and mitochondrial potential” value in the assay on ARPE cells [2] was “increased both mitochondrial biomass and potential”. Moreover, the “ATP production and mitochondrial respiration” value in the assay with ARPE cells [3] is “increased ATP production and mitochondrial respiration”. Also, in the assay with mitofusin2 and TOMM20, the “Mitofusin 2 protein expression” value was “increased expression of Mitofusin 2” and the “TOMM20 protein expression (mitochondrial biomass)” value is listed as “increased mitochondrial biomass (TOMM20)”. For the same compound, the “SIRT1 and 3 expression” value in the assay on SIRT1 and 3 was “induced”. Also, in the assay with SIRT1 and 3 (listed as (R)-DOI), the “SIRT1 and 3 expression” value is on record as “upregulates SIRT1”. Further, the AMP kinase activation result with AMP kinase is listed as “activation of AMP kinase”.
